# Measured values: patent US11116739B2, “Fixed dose combinations and formulations comprising ETC1002 and one or more statins and methods of treating or reducing cardiovascular disease” (Esperion Therapeutics, Inc., priority 2015, dated 2021)
# Like-named read-outs stand apart in the source and are kept apart here.
# Assays:
# [1] = Study 1002-012: effect of steady-state ETC-1002 on single-dose PK of simvastatin, pravastatin, rosuvastatin
# Description: Serial PK blood samples were collected through the morning of Day −3. Starting on Day 1, all subjects received oral ETC-1002, 240 mg, once daily for 16 days. On the morning of Day 12, in addition to ETC-1002, subjects received a single dose of a statin drug, based on their cohort assignment; serial PK blood samples were collected.
# [2] = clinical pharmacokinetics of ETC-1002; type: in vivo, human
# Description: (§1) The entire clinical program for ETC-1002 (conducted between 2009 and 2015) has included approximately 1000 subjects and patients, with approximately 700 receiving ETC-1002 doses ranging from 2.5 up to 240 mg/day (multiple doses) for up to 12 weeks. There are 15 completed clinical studies (nine Phase 1 and six Phase 2), and integrated data summaries are based on the 6 completed Phase 2 studies.
# [3] = tested on: rodent models of dyslipidemia; experiment: primary pharmacology in rodent models of dyslipidemia; type: in vivo
# Description: The primary pharmacology of ETC-1002 was evaluated in several well-characterized and predictive rodent models of dyslipidemia. In these studies, ETC-1002 lowered LDL-C and triglycerides (TGs) and increased high-density lipoprotein cholesterol (HDL-C).
# [4] = food-effect/bioequivalence study; design: species or system human; settings: in vivo
# [5] = safety pharmacology studies; settings: over the range of exposures intended for clinical studies
# [6] = pivotal 6-month rat study; settings: both sexes, in vivo, oral, male and female rats, read-out: no-observed-adverse-effect level (NOAEL) dose
# Description: (§2) In the pivotal 6-month rat study, the no-observed-adverse-effect level (NOAEL) dose was 30 mg/kg/day in male and female rats and the corresponding area under the curve during 24 hours (AUC0-24) values of the sum of ETC-1002 and ESP15228 were up to 528 μg·hr/mL. In the pivotal 12-month monkey study, the NOAEL dose was 60 mg/kg/day and the corresponding AUC0-24 value of the sum of ETC-1002 and ESP15228 was up to 4478 μg·hr/mL.
# [7] = pivotal 12-month monkey study; settings: in vivo, oral, read-out: NOAEL dose
# Description: as §2
# [8] = tested on: patients; experiment: 6 integrated Phase 2 studies (safety, TEAEs, SAEs); type: in vivo, human
# Description: as §1
# The greatest number of patients experiencing at least 1 TEAE among ETC-1002-treated groups occurred in the ETC-1002 40-mg dose group (75.6%); this frequency was similar to the frequency of patients experiencing at least 1 TEAE in the placebo group (74.2%).
# [9] = tested on: patients; experiment: integrated analysis of six Phase 2 studies (efficacy); type: in vivo, human
# Description: as §1
# [10] = tested on: QT/QTc; experiment: thorough QT/QTc (TQT) study (1002-022); type: in vivo, human; settings: ETC-1002 240 mg daily for 9 days
# [11] = tested on: major drug transporters; experiment: in vitro drug transporter inhibition; type: in vitro ADME
# [12] = drug interaction with metformin or Ortho-Novum 1/35; type: in vivo, human
# [13] = in-vitro and in-vivo genetic toxicology assays
# [14] = tested on: major cytochrome P450 (CYP) enzymes; experiment: in vitro CYP inhibition/induction studies; type: in vitro ADME; settings: at clinically relevant plasma concentrations
# [15] = Study 1002-007: effect of ETC-1002 on the PK of atorvastatin
# Description: All patients started ETC-1002 at a dose of 60 mg/day, which was up-titrated every 2 weeks to 120 mg/day, then 180 mg/day, then 240 mg/day.
# [16] = tested on: mice, rats, and monkeys; experiment: oral toxicology studies up to 12 months; type: in vivo
# Text: In toxicology studies, evaluations of ETC-1002 in mice, rats, and monkeys in oral studies up to 12 months in duration have been completed. […] Routine clinical laboratory parameters will continue to be monitored carefully in clinical trials.
structure (smiles),measurement,setting,value
"CCC(C)(C)C(=O)O[C@H]1C[C@@H](C)C=C2C=C[C@H](C)[C@H](CC[C@@H]3C[C@@H](O)CC(=O)O3)[C@H]21 [simvastatin, reference compound]",exposure (AUC0-inf) increased,"[1]; single dose simvastatin 20 mg with steady-state ETC-1002 240 mg vs simvastatin alone, healthy subjects",29%
CC(C)(CCCCCC(=O)CCCCCC(C)(C)C(=O)O)C(=O)O [ESP15228],plasma concentrations and PK parameters,"[1]; after 12th daily 240-mg dose of ETC-1002 with single dose simvastatin 20 mg, pravastatin 40 mg or rosuvastatin 10 mg",consistent with those in previous monotherapy studies
same,Cmax dose proportionality,"[2]; human, in vivo",increase in proportion to increasing dose
same,mean t1/2,"[2]; human, in vivo",20 to 33 h
same,Tmax,[2]; oral,7 h
"CC(C)(CCCCCC(O)CCCCCC(C)(C)C(=O)O)C(=O)O [ETC-1002, 8-hydroxy-2,2,14,14 tetramethylpentadecanedioic acid]",LDL-C,[3],lowered
same,high-density lipoprotein cholesterol (HDL-C),[3],increased
same,triglycerides (TGs),[3],lowered
same,food effect,[4],can be taken without regard to food
same,risks for patients identified in safety pharmacology,[5],did not identify any significant risks
same,NOAEL at 6 months,[6],30 mg/kg/day
same,NOAEL at 12 months,[7],60 mg/kg/day
same,deaths,"[8]; ETC-1002 120 mg group, Study 1002-008, Study Day 98, considered possibly related to study drug",One patient died with cause unknown
same,"frequency of TEAEs, SOC infections and infestations","[8]; human, in vivo",11.6-25%
same,patients experiencing at least 1 TEAE,"[8]; human, in vivo",75.6%
same,dose-related trends in the frequency of TEAEs,[8]; in vivo,there did not appear to be any dose-related trends
same,dose-related trends in the frequency of myalgia,[8]; in vivo,no dose-related trends
same,muscle-related SAEs,[8]; in vivo,no muscle-related SAEs
same,other measures of safety including laboratory results,[8]; in vivo,no clinically significant trends
same,reports of rhabdomyolysis,[8]; in vivo,no reports
same,safety profile,[8]; in vivo,excellent safety profile
same,"LDL-C, placebo-adjusted LS means for percent change from baseline",[9]; 180 mg on top of stable statin therapy,~22%
same,"LDL-C, placebo-adjusted LS means for percent change from baseline",[9]; ETC-1002 180 mg monotherapy,approximately 32%
same,"non-HDL-C, TC, LDL particle number and apoB",[9]; accompanying reduced LDL-C,corresponding reductions
same,effect on HDL-C and TGs,[9]; in vivo,generally neutral
same,QT interval duration,[10],does not prolong
same,change in QTc,[10],no significant change
same,effect on heart rate and PR and QRS intervals,[10],no clinically significant effect
same,inhibition of major drug transporters,[11],does not appear to inhibit
same,drug interaction,[12]; combination of ETC-1002 and Ortho-Novum 1/35 (combined oral contraceptive),No drug interaction
same,drug interaction,[12]; combination of ETC-1002 and metformin,No drug interaction
same,clastogenicity,[13],non-clastogenic
same,mutagenicity,[13],non-mutagenic
same,inhibition or induction of major CYP enzymes,[14],neither an inhibitor nor inducer
same,LDL-C lowering,[15]; ETC-1002 in combination with atorvastatin 10 mg vs atorvastatin alone,incremental LDL-C lowering beyond atorvastatin alone
same,Cmax dose proportionality,"[2]; human, in vivo",increase in proportion to increasing dose
same,Tmax,"[2]; human, in vivo, oral, read-out: Tmax",< 4 h
same,half-life,"[2]; human, in vivo, oral, read-out: mean t1/2",15 to 27 h
same,"systemic exposure, AUCtau,ss, dose proportionality","[2]; up to 120 mg daily, linear from 140 to 220 mg daily doses",slightly more than dose-proportional increase
same,"central nervous system, respiratory, or cardiovascular liabilities","[16]; oral, up to 12 months, mice, rats, monkeys","No significant central nervous system, respiratory, or cardiovascular liabilities have been identified"
same,target organs in repeat-dose studies,"[16]; rats and monkeys, changes reversible following cessation of treatment",liver and kidney
CC(C)c1c(C(=O)Nc2ccccc2O)c(-c2ccccc2)c(-c2ccc(F)cc2)n1CC[C@@H](O)C[C@@H](O)CC(=O)O [ortho-hydroxy atorvastatin],higher exposure than atorvastatin alone,[15]; 10 mg atorvastatin plus 120 mg ETC-1002 daily vs 10 mg atorvastatin alone,approximately 60%
same,exposure versus atorvastatin alone,[15]; 10 mg atorvastatin plus ETC-1002 240 mg,higher exposure
